Results reported in patent US20250144099A1, “INK4 TUMOR SUPPRESSOR PROTEINS MEDIATE RESISTANCE TO CDK4/6 KINASE INHIBITORS” (MEMORIAL SLOAN-KETTERING CANCER CENTER, priority 2021, published 2025).
Entries after “also recorded” stand apart in the source; their conditions may differ.

How the values were obtained:
[1] = Pharmacokinetic study; format: in vivo, C57BL/6 male mice
Method: Pharmacokinetic study. C57BL/6 male mice were dosed with BSJ-05-017 solution formulation (i.p., 5/95 DMSO/10% captisol, dose 25 mg/kg) and BSJ-03-096 solution formulation (p.o., 5/95 DMSO/10%, dose 10 mg/kg). Blood samples were collected at 0.08, 0.25, 0.5, 1, 2, 4, 6, 8 and 24 hr. The blood samples were collected from sets of three mice at each time point in microcentrifuge tubes containing K2EDTA as an anticoagulant. Plasma samples were separated by centrifugation and stored below −70° C. until bioanalysis. All samples were processed for analysis by precipitation using acetonitrile and analyzed with a partially validated LC/MS/MS method (LLOQ −1.22 ng/mL for IV and PO, LLOQ −5.02 ng/mL for IP). Pharmacokinetic parameters were calculated using the noncompartmental analysis tool of WinNonlin Enterprise software (Version 6.3).

[2] = test system: MCF7 parental cell-derived xenografts; experiment: Efficacy study, cell-derived xenograft; format: in vivo, NSG mice; conditions: ribociclib 25 mg/kg p.o., BSJ-05-017 50 mg/kg i.p., BSJ-03-096 50 mg/kg p.o., 25-35 days
Method: (§1) Efficacy study. NOD.Cg-Prkdc Il2rg<tm1Wjl>/SzJ (NSG) mice were obtained from the Jackson Laboratory (Stock #: 005557). Each mouse was injected with MCF7 parental, CDK6-ovexpressing or PTEN loss cells subcutaneously 1 week after the implantation of estradiol pellets (25 mg). […] Tumor volumes were recorded every 3-4 days. Mice were sacrificed if tumors reached 1000 mm^3 or at the end of the experiment. Tumors were collected and processed as described above.

[3] = test system: shPTEN (PTEN loss) xenografts; experiment: Efficacy study, cell-derived xenograft; format: in vivo, NSG mice; conditions: 25-35 days
Method: as §1

[4] = test system: CDK6-overexpressing xenografts; experiment: Efficacy study, cell-derived xenograft; format: in vivo, NSG mice; conditions: 25-35 days
Method: as §1

[5] = test system: phosphorylation of Rb; experiment: Immunoblotting of Rb phosphorylation in cells; format: cell-based, human; conditions: FAT1 loss / CDK6-high CDK4/6i-resistant MCF7 cells
Method: (§2) Cell lysates were collected in RIPA buffer (Thermo Fisher Scientific) supplemented with protease and phosphatase inhibitors (Pierce). Protein concentration was quantified by using the BCA kit (Fisher Scientific). […] of protein lysates were loaded onto 4-12% SDS-PAGE gels (Invitrogen) for electrophoresis and transferred onto nitrocellular membranes. Blots were blocked with Intercept™ (TBS) Blocking Buffer (LI-COR Bioscience #927-60001) and incubated with primary antibody at 4° C. overnight. Secondary antibodies conjugated with fluorescence (LI-COR Bioscience #926-68071 and #926-32210) were incubated for 1 h at room temperature and blots were scanned by Odyssey Clx Imaging System from LI-COR Bioscience.

[6] = target: T1, CDK4 (Homo sapiens, UniProt P11802); experiment: Immunoblotting of CDK4 degradation in cells; format: cell-based
T1 construct: CDK4 and CDK6 were immunoprecipitated from isogenic drug sensitive (MCF7 parental cells with low CDK6); endogenous in cells; host or cells: MCF-7 parental and MCF-7 FAT1 CRISPR knockout (CDK6-high) cells
Method: as §2

[7] = test system: patient-derived xenograft models; experiment: Patient-derived xenograft tumor growth; format: in vivo, mice; conditions: two patient-derived xenograft models; ribociclib at clinical equivalent dose
[8] = test system: MOLT4 cells; experiment: Global quantitative mass spectrometry proteomics; format: cell-based, human; conditions: 250 nM, 5 h
Method: Molt4 cells were treated with 250 nM of compounds BSJ-05-017 or BSJ-03-096 (singlicate) or DMSO control (biological triplicate) for 5 hours. Cells were harvested by centrifugation and prepared for mass spectrometry as described previously (28). Data were collected as reported (28). LC-MS data were analyzed using Proteome Discoverer 2.4 (Thermo Fisher Scientific), as previously described (28). Reporter ion intensities were normalized and scaled using in-house scripts in the R framework (63). Statistical analysis was carried out using the limma package within the R framework (64).

[9] = target: CDK6 (Homo sapiens, UniProt Q00534); experiment: Immunoblotting of CDK6 degradation in cells; format: cell-based; set-up: MCF7 cells that lost FAT1 expression and with high CDK6 expression; endogenous in cells; host or cells: MCF-7 FAT1 loss cells (also MCF-7 parental)
Method: as §2

[10] = test system: MCF-7 CDK6-high cells (FAT1 loss); experiment: Cell viability assay (Resazurin); format: cell-based, human; conditions: day 7
Method: (§3) Cell viability was measured by Resazurin (R&D Systems, Minneapolis, MN, USA) as described previously (51). Briefly, 1,500 cells were seeded in a 96-well plate and allowed to recover overnight. Cells were treated with drugs at day 0. Resazurin was added to the cells 4 hours prior to the measurements on day 3, day 5 and day 7. Fluorescent intensity was measured using a microplate reader (SpectraMax M5, Molecular Devices, Sunnyvale, CA, USA). IC50 was calculated by GraphPad Prism 7.0 using a sigmoidal regression model.

[11] = test system: MCF-7 parental cells; experiment: Cell viability assay (Resazurin); format: cell-based, human; conditions: day 7
Method: as §3

[12] = BSJ-05-017 50 mg/kg i.p., BSJ-03-096 50 mg/kg p.o.
[13] = FAT1 loss / CDK6-high CDK4/6i-resistant MCF7 cells, 24 h treatment
[14] = MCF7 cells with overexpression of CDK6

Sequence of CDK6 (Q00534 whole entry): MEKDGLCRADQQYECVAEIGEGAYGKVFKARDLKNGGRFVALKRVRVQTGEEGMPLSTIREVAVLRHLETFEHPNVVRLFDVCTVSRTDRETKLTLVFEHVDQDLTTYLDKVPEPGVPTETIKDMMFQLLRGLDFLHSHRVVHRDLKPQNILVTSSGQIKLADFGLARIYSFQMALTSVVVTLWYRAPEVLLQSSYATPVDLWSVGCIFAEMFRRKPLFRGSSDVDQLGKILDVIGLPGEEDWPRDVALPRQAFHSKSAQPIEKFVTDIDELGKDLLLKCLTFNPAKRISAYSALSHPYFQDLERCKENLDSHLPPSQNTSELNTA
T1 sequence (P11802 whole entry): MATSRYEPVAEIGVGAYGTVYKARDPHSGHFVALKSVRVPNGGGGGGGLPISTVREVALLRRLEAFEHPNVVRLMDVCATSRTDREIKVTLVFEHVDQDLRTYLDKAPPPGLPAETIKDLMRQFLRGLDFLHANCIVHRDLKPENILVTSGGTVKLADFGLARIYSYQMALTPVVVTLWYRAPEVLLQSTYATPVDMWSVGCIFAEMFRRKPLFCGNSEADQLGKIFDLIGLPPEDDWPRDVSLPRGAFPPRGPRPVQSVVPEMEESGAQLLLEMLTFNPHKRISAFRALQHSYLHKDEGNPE
T1 sequence (P24385 whole entry partner): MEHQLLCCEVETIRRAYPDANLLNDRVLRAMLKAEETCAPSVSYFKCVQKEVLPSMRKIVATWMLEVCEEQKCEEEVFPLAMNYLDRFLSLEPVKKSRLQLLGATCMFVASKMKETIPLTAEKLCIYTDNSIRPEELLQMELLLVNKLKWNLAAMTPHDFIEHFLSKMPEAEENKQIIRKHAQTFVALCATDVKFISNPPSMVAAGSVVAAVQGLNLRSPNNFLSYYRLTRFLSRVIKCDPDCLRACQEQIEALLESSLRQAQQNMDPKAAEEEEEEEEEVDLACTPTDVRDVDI

SMILES | inhibition of phosphorylation of Rb (and downstream E2F1/cyclin A2) [5] | degradation of CDK4 [6, 13] | degradation of CDK6 [9, 13] | further results
CC(=O)c1c(C)c2cnc(Nc3ccc(N4CCN(CC5CCN(c6ccc7c(c6)C(=O)N(C6CCC(=O)NC6=O)C7=O)CC5)CC4)cn3)nc2n(C2CCCC2)c1=O (stereo not drawn) [BSJ-03-096, 5-(4-((4-(6-((6-acetyl-8-cyclopentyl-5-methyl-7-oxo-7,8-dihydropyrido[2,3-d]pyrimidin-2-yl)amino)pyridin-3-yl)piperazin-1-yl)methyl)piperidin-1-yl)-2-(2,6-dioxopiperidin-3-yl)isoindoline-1,3-dione] | efficiently inhibit the phosphorylation of Rb protein; also recorded: effective inhibition of the phosphorylation of Rb | most significant degradation of both CDK4 and CDK6; also recorded: effective in degrading both CDK4 and CDK6; also recorded: high potency in degrading CDK4 and CDK6 | most significant degradation of both CDK4 and CDK6; also recorded: effective in degrading both CDK4 and CDK6; also recorded: high potency in degrading CDK4 and CDK6 | Cmax ([1]; male, C57BL/6, mouse, plasma, po, single dose 10 mg/kg p.o.): 900 nM; concentration at 24 h ([1]; male, C57BL/6, mouse, plasma, po, single dose 10 mg/kg p.o., read-out: plasma concentration at 24h post dosing): ~100 nM; metabolic stability ([1]; single dose in mice, i.p. or p.o.): good metabolic stability; tumor response [2]: sensitive; durable tumor inhibition (percent) [3, 12]: −54.9%; durable tumor inhibition (percent) [4, 12]: −68.9%; degradation of CDK4 [6, 14]: effectively degrade CDK4 and CDK6; inhibition of tumor growth [7]: effective in inhibiting tumor growth; selectivity in global proteomics [8]: highly selective for CDK4 and CDK6; degradation of CDK6 [9, 14]: effectively degrade CDK4 and CDK6
CN(C)C(=O)c1cc2cnc(Nc3ccc(N4CCNCC4)cn3)nc2n1C1CCCC1 [ribociclib, reference compound] | – | – | – | tumor response [2]: sensitive; tumor response ([3]; ribociclib 25 mg/kg p.o.): tumor outgrowth after initial response; tumor response ([4]; ribociclib 25 mg/kg p.o.): tumor outgrowth after initial response; inhibition of tumor growth [7]: does not inhibit their growth effectively
CC(=O)c1c(C)c2cnc(Nc3ccc(N4CCN(CCOCCOCCOCCNC(=O)COc5cccc6c5C(=O)N(C5CCC(=O)NC5=O)C6=O)CC4)cn3)nc2n(C2CCCC2)c1=O (stereo not drawn) [BSJ-03-123, N-(2-(2-(2-(2-(4-(6-((6-acetyl-8-cyclopentyl-5-methyl-7-oxo-7,8-dihydropyrido[2,3-d]pyrimidin-2-yl)amino)pyridin-3-yl)piperazin-1-yl)ethoxy)ethoxy)ethoxy)ethyl)-2-((2-(2,6-dioxopiperidin-3-yl)-1,3-dioxoisoindolin-4-yl)oxy)acetamide, reference compound] | – | not CDK4; also recorded: no effect on CDK4 | dose dependent targeting of CDK6; also recorded: effective CDK6 degradation; also recorded: dose-dependent degradation of CDK6 | inhibition of cell growth [10]: does not effectively inhibit the growth; inhibition of cell growth [11]: does not effectively inhibit the growth
CC(=O)c1c(C)c2cnc(Nc3ccc(N4CCN(CCC5CCN(c6cccc7c6C(=O)N(C6CCC(=O)NC6=O)C7=O)CC5)CC4)cn3)nc2n(C2CCCC2)c1=O (stereo not drawn) [MS-01-303, 4-(4-(2-(4-(6-((6-acetyl-8-cyclopentyl-5-methyl-7-oxo-7,8-dihydropyrido[2,3-d]pyrimidin-2-yl)amino)pyridin-3-yl)piperazin-1-yl)ethyl)piperidin-1-yl)-2-(2,6-dioxopiperidin-3-yl)isoindoline-1,3-dione] | inhibit phosphorylation of Rb | effectively degrade CDK4/CDK6 | effectively degrade CDK4/CDK6 | –
CC(=O)c1c(C)c2cnc(Nc3ccc(N4CCN(CCC5CCN(c6ccc7c(c6)C(=O)N(C6CCC(=O)NC6=O)C7=O)CC5)CC4)cn3)nc2n(C2CCCC2)c1=O (stereo not drawn) [AM-01-269, 5-(4-(2-(4-(6-((6-acetyl-8-cyclopentyl-5-methyl-7-oxo-7,8-dihydropyrido[2,3-d]pyrimidin-2-yl)amino)pyridin-3-yl)piperazin-1-yl)ethyl)piperidin-1-yl)-2-(2,6-dioxopiperidin-3-yl)isoindoline-1,3-dione] | inhibiting phosphorylation of Rb | effective in degrading CDK4/6 | effective in degrading CDK4/6 | –
CC(=O)c1c(C)c2cnc(Nc3ccc(N4CCN(CCCC5CCN(c6cccc7c6C(=O)N(C6CCC(=O)NC6=O)C7=O)CC5)CC4)cn3)nc2n(C2CCCC2)c1=O (stereo not drawn) [MS-02-24] | inhibiting phosphorylation of Rb | effective in degrading CDK4/6 | effective in degrading CDK4/6 | –
CC(=O)c1c(C)c2cnc(Nc3ccc(N4CCN(CCC5CC(CNc6cccc7c6C(=O)N(C6CCC(=O)NC6=O)C7=O)C5)CC4)cn3)nc2n(C2CCCC2)c1=O (stereo not drawn) [AM-01-125, 4-(((3-(2-(4-(6-((6-acetyl-8-cyclopentyl-5-methyl-7-oxo-7,8-dihydropyrido[2,3-d]pyrimidin-2-yl)amino)pyridin-3-yl)piperazin-1-yl)ethyl)cyclobutyl)methyl)amino)-2-(2,6-dioxopiperidin-3-yl)isoindoline-1,3-dione] | inhibit phosphorylation of Rb | effectively degrade CDK4/CDK6 | effectively degrade CDK4/CDK6 | –
CC(=O)c1c(C)c2cnc(Nc3ccc(N4CCN(CCC5CCCCN5c5ccc6c(c5)C(=O)N(C5CCC(=O)NC5=O)C6=O)CC4)cn3)nc2n(C2CCCC2)c1=O (stereo not drawn) [AM-01-275, 6-(2-(2-(4-(6-((6-acetyl-8-cyclopentyl-5-methyl-7-oxo-7,8-dihydropyrido[2,3-d]pyrimidin-2-yl)amino)pyridin-3-yl)piperazin-1-yl)ethyl)piperidin-1-yl)-2-(2,6-dioxopiperidin-3-yl)-3a,4-dihydro-1H-isoindole-1,3(2H)-dione] | inhibiting phosphorylation of Rb | effective in degrading CDK4/6 | effective in degrading CDK4/6 | –
